One block for each compound: values may come before it.
Test system: 377384-186-R-J1-PDC complex spheroid viability
Assay: Anticancer human tumor 377384-186-R-J1-PDC patient-derived pancreatic carcinoma cell line growth inhibition [RAS]
Details: for IC50: curve of first compound; for viability, T/C: stronger effect = lower value
Procedure, shortened: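 Tumour cells grown as complex spheroids with HUVEC endothelial cells and mesenchymal stem cells, treated with RAS pathway inhibitor combinations. Each agent spans half-log steps from near clinical Cmax, or 10 microM where Cmax is unknown.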

[1] = second compound 0.00316 µM, first compound 0.0316 µM
[2] = second compound 0.00316 µM, first compound 0.1 µM
[3] = second compound 0.00316 µM, first compound 0.316 µM
[4] = second compound 0.00316 µM, first compound 1 µM
[5] = second compound 0.01 µM, first compound 0.0316 µM
[6] = second compound 0.01 µM, first compound 0.1 µM
[7] = second compound 0.01 µM, first compound 0.316 µM
[8] = second compound 0.01 µM, first compound 1 µM
[9] = second compound 0.0316 µM, first compound 0.0316 µM
[10] = second compound 0.0316 µM, first compound 0.1 µM
[11] = second compound 0.0316 µM, first compound 0.316 µM
[12] = second compound 0.0316 µM, first compound 1 µM
[13] = second compound 0.1 µM, first compound 0.0316 µM
[14] = second compound 0.1 µM, first compound 0.1 µM
[15] = second compound 0.1 µM, first compound 0.316 µM
[16] = second compound 0.1 µM, first compound 1 µM
[17] = second compound 0.316 µM, first compound 0.0316 µM
[18] = second compound 0.316 µM, first compound 0.1 µM
[19] = second compound 0.316 µM, first compound 0.316 µM
[20] = second compound 0.316 µM, first compound 1 µM
[21] = second compound 1 µM, first compound 0.0316 µM
[22] = second compound 1 µM, first compound 0.1 µM
[23] = second compound 1 µM, first compound 0.316 µM
[24] = second compound 1 µM, first compound 1 µM
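Also: spheroids exposed to compounds for seven days before readout.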

- IC50 (second compound 0.00316 µM): 0.0988 µM
- IC50 (second compound 0.01 µM): 0.0866 µM
- IC50 (second compound 0.0316 µM): 0.0954 µM
- IC50 (second compound 0.1 µM): 0.0771 µM
- IC50 (second compound 0.316 µM): 0.0769 µM
- IC50 (second compound 1 µM): 0.0675 µM
Structure (SMILES): CC1(O)CCCC1n1c(=O)c(C(F)F)cc2cnc(NC3CCN(S(C)(=O)=O)CC3)nc21 (centres undefined) + C=CC(=O)N1CCN(c2nc(OCC3CCCN3C)nc3c(F)c(-c4nc(N)cc(C)c4C(F)(F)F)c(Cl)cc23)C(C)C1
- viability, T/C [1]: 81.1%
- viability, T/C [2]: 49.7%
- viability, T/C [3]: 17%
- viability, T/C [4]: 24.2%
- viability, T/C (second compound 0.00316 µM, first compound 3.16 µM): 33.9%
- viability, T/C (second compound 0.00316 µM, first compound 10 µM): 4.64%
- viability, T/C [5]: 89.5%
- viability, T/C [6]: 45.1%
- viability, T/C [7]: 21.4%
- viability, T/C [8]: 20.8%
- viability, T/C (second compound 0.01 µM, first compound 3.16 µM): 28.8%
- viability, T/C (second compound 0.01 µM, first compound 10 µM): 4.18%
- viability, T/C [9]: 73.4%
- viability, T/C [10]: 49%
- viability, T/C [11]: 20.9%
- viability, T/C [12]: 20.7%
- viability, T/C (second compound 0.0316 µM, first compound 3.16 µM): 29.1%
- viability, T/C (second compound 0.0316 µM, first compound 10 µM): 5.27%
- viability, T/C [13]: 79.3%
- viability, T/C [14]: 42.1%
- viability, T/C [15]: 20.4%
- viability, T/C [16]: 24.4%
- viability, T/C (second compound 0.1 µM, first compound 3.16 µM): 29.3%
- viability, T/C (second compound 0.1 µM, first compound 10 µM): 4.69%
- viability, T/C [17]: 74.3%
- viability, T/C [18]: 42.8%
- viability, T/C [19]: 17.7%
- viability, T/C [20]: 21.5%
- viability, T/C (second compound 0.316 µM, first compound 3.16 µM): 33%
- viability, T/C (second compound 0.316 µM, first compound 10 µM): 5.33%
- viability, T/C [21]: 69.4%
- viability, T/C [22]: 39.9%
- viability, T/C [23]: 19.7%
- viability, T/C [24]: 22.5%
- viability, T/C (second compound 1 µM, first compound 3.16 µM): 32.5%
- viability, T/C (second compound 1 µM, first compound 10 µM): 6.56%

- IC50 (second compound 0.00316 µM): 0.21 µM
- IC50 (second compound 0.01 µM): 0.181 µM
- IC50 (second compound 0.0316 µM): 0.152 µM
- IC50 (second compound 0.1 µM): 0.21 µM
- IC50 (second compound 0.316 µM): 0.223 µM
- IC50 (second compound 1 µM): 0.306 µM
Structure (SMILES): CCN1CCN(Cc2ccc(Nc3ncc(F)c(-c4cc(F)c5nc(C)n(C(C)C)c5c4)n3)nc2)CC1 + C=CC(=O)N1CCN(c2nc(OCC3CCCN3C)nc3c(F)c(-c4nc(N)cc(C)c4C(F)(F)F)c(Cl)cc23)C(C)C1
- viability, T/C (second compound 0.00316 µM, first compound 0.00316 µM): 87.5%
- viability, T/C (second compound 0.00316 µM, first compound 0.01 µM): 77.2%
- viability, T/C [1]: 68.7%
- viability, T/C [2]: 56.6%
- viability, T/C [3]: 45.4%
- viability, T/C [4]: 40.4%
- viability, T/C (second compound 0.01 µM, first compound 0.00316 µM): 91.4%
- viability, T/C (second compound 0.01 µM, first compound 0.01 µM): 79.8%
- viability, T/C [5]: 73.3%
- viability, T/C [6]: 52.1%
- viability, T/C [7]: 46.8%
- viability, T/C [8]: 40.2%
- viability, T/C (second compound 0.0316 µM, first compound 0.00316 µM): 89.4%
- viability, T/C (second compound 0.0316 µM, first compound 0.01 µM): 81.8%
- viability, T/C [9]: 73.6%
- viability, T/C [10]: 53.6%
- viability, T/C [11]: 42.5%
- viability, T/C [12]: 36.6%
- viability, T/C (second compound 0.1 µM, first compound 0.00316 µM): 82.1%
- viability, T/C (second compound 0.1 µM, first compound 0.01 µM): 78%
- viability, T/C [13]: 70.7%
- viability, T/C [14]: 59%
- viability, T/C [15]: 44.6%
- viability, T/C [16]: 38.7%
- viability, T/C (second compound 0.316 µM, first compound 0.00316 µM): 85.6%
- viability, T/C (second compound 0.316 µM, first compound 0.01 µM): 79.2%
- viability, T/C [17]: 77%
- viability, T/C [18]: 58.9%
- viability, T/C [19]: 46.3%
- viability, T/C [20]: 39.8%
- viability, T/C (second compound 1 µM, first compound 0.00316 µM): 95.1%
- viability, T/C (second compound 1 µM, first compound 0.01 µM): 75.4%
- viability, T/C [21]: 73.6%
- viability, T/C [22]: 57.5%
- viability, T/C [23]: 46.1%
- viability, T/C [24]: 45.9%
